Source: patent US8440794B2, “Peptide sequences, their branched form and use thereof for antimicrobial applications” (Universita' Degli Studi di Siena, priority 2008, dated 2013)
≈ marks a conversion by molar mass, not a printed value. Where a SMILES comes first, the peptide text is derived from it. Bridges are numbered along the chain shown (N, C = ends). Roman numbers before positions name the chains, in order. [ ]: non-standard residue; d: D form. βAla = NCCC(=O)O

What was measured:
[1] = test system: P. aeruginosa SC-MDm03-02; type: cell-based, Pseudomonas aeruginosa; settings: SC-MDm03-02, 24 h
Method: (§1) M33, […], M35 and M36 MICs were determined against strains of several bacterial species, including Gram-negative pathogens and also Staphylococcus aureus (Table 1). MICs in the micromolar range were observed against several Gram-negatives including Pseudomonas aeruginosa, Acinetobacter baumannii and most Enterobacteriaceae, with the exception of Proteus mirabilis, Serratia marcescens and Burkholderia cepacia. Activity of peptides was retained against MDR strains with various resistance mechanisms (such as extended-spectrum beta-lactamases and carbapenemases), including MDR P. aeruginosa strains from CF patients. Antimicrobial profile of M33, […] and potency were overall similar to those of polymyxin B, although M33, M34, M35 and M36 also appeared to have some activity against S. aureus (Table 1).

[2] = test system: P. aeruginosa SC-DMr05-04; type: cell-based, Pseudomonas aeruginosa; settings: SC-DMr05-04, 24 h
Method: as §1

[3] = test system: P. aeruginosa SC-GMm03-05; type: cell-based, Pseudomonas aeruginosa; settings: SC-GMm03-05, 24 h
Method: as §1

P. aeruginosa EF-OBG6-1 = type: cell-based, Pseudomonas aeruginosa; settings: EF-OBG6-1, 24 h
Method: as §1

[4] = test system: P. aeruginosa SC-CNm03-07; type: cell-based, Pseudomonas aeruginosa; settings: SC-CNm03-07, 24 h
Method: as §1

P. aeruginosa VR-143/97 = type: cell-based, Pseudomonas aeruginosa; settings: VR-143/97, 24 h
Method: as §1

[5] = test system: P. aeruginosa SC-BGr12-02; type: cell-based, Pseudomonas aeruginosa; settings: SC-BGr12-02, 24 h
Method: as §1

[6] = test system: P. aeruginosa SC-VMr04-05; type: cell-based, Pseudomonas aeruginosa; settings: SC-VMr04-05, 24 h
Method: as §1

P. aeruginosa PAO-1 = type: cell-based, Pseudomonas aeruginosa; settings: PAO-1, 24 h
Method: as §1

[7] = test system: P. aeruginosa SC-MDr03-06; type: cell-based, Pseudomonas aeruginosa; settings: SC-MDr03-06, 24 h
Method: as §1

P. aeruginosa AV65 = type: cell-based, Pseudomonas aeruginosa; settings: AV65, 24 h
Method: as §1

[8] = test system: Proteus mirabilis W03VA1017; type: cell-based; settings: W03VA1017, 24 h
Method: as §1

[9] = test system: Escherichia coli ATCC 25922; type: cell-based; settings: ATCC 25922, 24 h
Method: as §1

[10] = test system: Acinetobacter baumannii RUH 134; type: cell-based; settings: RUH 134, 24 h
Method: as §1

[11] = test system: Burkholderia cepacia ORB-99; type: cell-based; settings: 24 h
Method: as §1

[12] = test system: Enterobacer aerogenes W03BG0067; type: cell-based; settings: 24 h
Method: as §1

[13] = test system: Staphylococcus aureus ATCC 29213; type: cell-based; settings: ATCC 29213, 24 h
Method: as §1

[14] = test system: Pseudomonas aeruginosa ATCC 27853; type: cell-based; settings: ATCC 27853, 24 h
Method: as §1

[15] = test system: Serratia marcescens W03BG0003; type: cell-based; settings: W03BG0003, 24 h
Method: as §1

[16] = test system: Klebsiella pneumoniae ATCC 13833; type: cell-based; settings: ATCC 13833, 24 h
Method: as §1

[17] = test system: Enterobacter cloacae W03AN0041; type: cell-based; settings: W03AN0041, 24 h
Method: as §1

E. coli W03BG0025 = type: cell-based, Escherichia coli; settings: W03BG0025, 24 h
Method: as §1

K pneumoniae FIPP-1 = type: cell-based, Klebsiella pneumoniae; settings: FIPP-1, 24 h
Method: as §1

K pneumoniae 7086042 = type: cell-based, Klebsiella pneumoniae; settings: 7086042, 24 h
Method: as §1

K pneumoniae C8-27 = type: cell-based, Klebsiella pneumoniae; settings: C8-27, 24 h
Method: as §1

S. aureus 3851 = type: cell-based, Staphylococcus aureus; settings: 3851, 24 h
Method: as §1

A. baumannii MR157 = type: cell-based, Acinetobacter baumannii; settings: MR157, 24 h
Method: as §1

A. baumannii RUH 875 = type: cell-based, Acinetobacter baumannii; settings: RUH 875, 24 h
Method: as §1

human erythrocytes = type: cell-based
Method: FIG. 2. Percentage of haemolysis provoked by tetra-branched M33 peptide incubated 3 or 24 hours with human red blood cells.
Haemolysis of fresh human erythrocytes was determined using the method of Parpart, summarized as follows. A calibration curve was constructed by suspending fresh human erythrocytes in phosphate buffer (pH 7.4, 110 mM sodium phosphate) with various concentrations of NaCl and incubated for 30 min at room temperature. Samples were centrifuged at 500×g for 5 minutes, and haemoglobin release was monitored by measuring the absorbance of supernatants at 540 nm. The absorbance obtained with 0.1% NaCl corresponded to 100% lysis and that with 1% NaCl, to 0% lysis. Peptides dissolved in PBS were added to human erythrocyte solution at several concentrations. The resulting suspension was incubated separately at 37° C. for 2 h and 24 h. Release of hemoglobin was monitored by measuring the absorbance of the suspernatant at 540 nm after centrifuging and haemolysis percentage was calculated using the calibration curve.

MIC [1]: 3 µM (≈ 14.4 µg/mL)
MIC [2]: 1.5 µM (≈ 7.19 µg/mL)
MIC [3]: 1.5 µM (≈ 7.19 µg/mL)
MIC (P. aeruginosa EF-OBG6-1): 1.5 µM (≈ 7.19 µg/mL)
MIC [4]: 0.3 µM (≈ 1.44 µg/mL)
MIC (P. aeruginosa VR-143/97): 1.5 µM (≈ 7.19 µg/mL)
MIC [5]: 1.5 µM (≈ 7.19 µg/mL)
MIC [6]: 3 µM (≈ 14.4 µg/mL)
MIC (P. aeruginosa PAO-1): 1.5 µM (≈ 7.19 µg/mL)
MIC [7]: 3 µM (≈ 14.4 µg/mL)
MIC (P. aeruginosa AV65): 1.5 µM (≈ 7.19 µg/mL)
MIC [8]: >24 µM
MIC [9]: 1.5 µM (≈ 7.19 µg/mL)
MIC [10]: 1.5 µM (≈ 7.19 µg/mL)
MIC [11]: >24 µM
MIC [12]: 1.5 µM (≈ 7.19 µg/mL)
MIC [13]: 6 µM (≈ 28.8 µg/mL)
MIC [14]: 1.5 µM (≈ 7.19 µg/mL)
MIC [15]: >24 µM
MIC [16]: 1.5 µM (≈ 7.19 µg/mL)
MIC [17]: 3 µM (≈ 14.4 µg/mL)
MIC (E. coli W03BG0025): 1.5 µM (≈ 7.19 µg/mL)
MIC (K pneumoniae FIPP-1): 3 µM (≈ 14.4 µg/mL)
MIC (K pneumoniae 7086042): 3 µM (≈ 14.4 µg/mL)
MIC (K pneumoniae C8-27): 1.5 µM (≈ 7.19 µg/mL)
MIC (S. aureus 3851): 6 µM (≈ 28.8 µg/mL)
MIC (A. baumannii MR157): 3 µM (≈ 14.4 µg/mL)
MIC (A. baumannii RUH 875): 3 µM (≈ 14.4 µg/mL)
Compound: CC[C@H](C)[C@H](NC(=O)[C@H](CCCCN)NC(=O)[C@@H](N)CCCNC(=N)N)C(=O)N[C@@H](CCCNC(=N)N)C(=O)N[C@H](C(=O)N[C@@H](CCCNC(=N)N)C(=O)N[C@@H](CC(C)C)C(=O)N[C@@H](CO)C(=O)N[C@@H](C)C(=O)NCCCC[C@H](NC(=O)[C@H](C)NC(=O)[C@H](CO)NC(=O)[C@H](CC(C)C)NC(=O)[C@H](CCCNC(=N)N)NC(=O)[C@@H](NC(=O)[C@H](CCCNC(=N)N)NC(=O)[C@@H](NC(=O)[C@H](CCCCN)NC(=O)[C@@H](N)CCCNC(=N)N)[C@@H](C)CC)C(C)C)C(=O)NCCCC[C@H](NC(=O)[C@H](CCCCNC(=O)[C@H](C)NC(=O)[C@H](CO)NC(=O)[C@H](CC(C)C)NC(=O)[C@H](CCCNC(=N)N)NC(=O)[C@@H](NC(=O)[C@H](CCCNC(=N)N)NC(=O)[C@@H](NC(=O)[C@H](CCCCN)NC(=O)[C@@H](N)CCCNC(=N)N)[C@@H](C)CC)C(C)C)NC(=O)[C@H](C)NC(=O)[C@H](CO)NC(=O)[C@H](CC(C)C)NC(=O)[C@H](CCCNC(=N)N)NC(=O)[C@@H](NC(=O)[C@H](CCCNC(=N)N)NC(=O)[C@@H](NC(=O)[C@H](CCCCN)NC(=O)[C@@H](N)CCCNC(=N)N)[C@@H](C)CC)C(C)C)C(=O)NCCC(=O)O)C(C)C [M36, RKIRVRLSA] (I: H-RKIRVRLSAKK[βAla]-OH / II: H-RKIRVRLSAK / III: H-RKIRVRLSA / IV: H-RKIRVRLSA; amide I:10-IV:C, I:11-II:C, II:10-III:C; N-terminus assumed)
Haemolysis of human red blood cells (human erythrocytes): practically negligible haemolysis grade
